From PMC9266460, “KSK-74: Dual Histamine H3 and Sigma-2 Receptor Ligand with Anti-Obesity Potential” (International Journal of Molecular Sciences, 2022)

Legend:
sigma-2 receptor = biological target: sigma-2 receptor; parameters: method as in PMID 34908391; details: Figure 1; read-out: σ2R Ki; cited from earlier work
sigma-1 receptor = biological target: sigma-1 receptor; parameters: method as in PMID 34908391; details: Figure 1; read-out: σ1R Ki; cited from earlier work
[1] = system: rats fed a palatable diet; details: cited from earlier work; for inhibition of weight gain: model of excessive eating
H3R = biological target: T1, H3R (Homo sapiens, UniProt Q9Y5N1); assay: Affinity at the H3R (literature values); format: binding; details: H3R Ki relative to sigma-2 Ki
T1 construct: the Aequoscreen line co-expresses apoaequorin
T1 sequence (Q9Y5N1 whole entry): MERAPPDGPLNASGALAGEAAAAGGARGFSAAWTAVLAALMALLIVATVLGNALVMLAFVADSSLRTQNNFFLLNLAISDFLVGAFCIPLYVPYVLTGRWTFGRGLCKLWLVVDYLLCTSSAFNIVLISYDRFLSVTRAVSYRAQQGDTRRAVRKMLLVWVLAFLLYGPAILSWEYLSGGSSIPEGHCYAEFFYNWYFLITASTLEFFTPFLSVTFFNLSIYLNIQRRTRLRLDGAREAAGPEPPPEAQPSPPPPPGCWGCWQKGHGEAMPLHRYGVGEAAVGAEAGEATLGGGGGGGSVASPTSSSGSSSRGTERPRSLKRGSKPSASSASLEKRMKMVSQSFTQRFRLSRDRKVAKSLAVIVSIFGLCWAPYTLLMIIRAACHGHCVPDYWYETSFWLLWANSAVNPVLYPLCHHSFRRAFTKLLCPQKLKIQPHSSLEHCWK

[2] = system: rats fed a palatable diet; assay: Plasma triglyceride and corticosterone levels in the model of excessive eating; format: in vivo, female Wistar rats; details: KSK 10 mg/kg, phentermine 7 mg/kg
Protocol: Blood was collected from the left carotid artery and then centrifuged at 600× g (15 min, 4 °C) to obtain plasma.
To determine plasma triglyceride levels, standard enzymatic and spectrophotometric tests (Cat. No 1-053-A150, Biomaxima S.A., Lublin, Poland) were used. The ELISA Kit (Item No. 501320, Cayman Chemical, Ann Arbor, MI, USA) was used to determine corticosterone levels in plasma.

adipose tissue = assay: Histological examination of adipose tissue (Masson's trichrome); format: in vivo, female Wistar rats; details: palatable diet
Protocol: Adipose tissue samples were prepared for histology using Masson’s trichrome stain (Merck) by fixation in 4% formaldehyde, dehydration in graded alcohol, and embedded in paraffin. The tissue samples were then sectioned using a microtome of 5 μm thickness. Six random fields from each section were analyzed in a blinded manner with an Olympus BX41 light microscope (Olympus, Tokyo, Japan) at magnifications of ×20, ×40 and ×100, and digital images were captured with an Olympus UC90 color camera. The quantitation of the number of adipocytes was performed in eight fields/slide with ×100 objective using an image analysis system: CellSensDimension (Olympus, Tokyo, Japan). The numerical density of the adipocytes was obtained by counting the total number of adipocytes per high-power field ([…]), and then this number was converted to 0.1 mm^2. According to stereometric rules, adipocytes tangent to the left and top edges of the image field were not counted. A semi-quantitative scale was used to assess the inflammatory response in adipose tissue. The following were evaluated on a subjective scale: inflammatory cell infiltration between adipocytes (0—normal, 1—few cells, 2—local clusters, and 3—extensive infiltrates), perivascular infiltration of immune cells (0—normal, 1—few cells, and 2—ring of inflammatory cells), widening of the septum (0—normal and 1—widening), and capillary congestion (0—normal and 1—congestion). A sum calculated from independently assessed values was calculated for each animal as an index of inflammation.

[3] = system: peritoneal adipose tissue; assay: Leptin, resistin, IL-6 and MCP-1 levels in adipose tissue (ELISA); format: in vivo, female Wistar rats; details: KSK 10 mg/kg i.p., phentermine 7 mg/kg
Protocol: The frozen peritoneal adipose tissue was weighed, and homogenates were prepared by homogenizing 1 g of tissue in 4 mL of 0.1 M phosphate buffer, pH 7.4, using the IKA-ULTRA-TURRAX T8 homogenizer. The adipose tissue homogenates were then used for biochemical assays.
To determine the levels of leptin, resistin, IL-6, and MCP-1 in adipose tissue, the standard ELISA Kit (Cat. No E0561Ra, Cat. No E0211Ra, Cat. No E0135Ra, Cat. No E0193Ra, Bioassay Technology Laboratory, Shanghai, China) was used. To determine the levels of protein, a standard spectrophotometric test (Cat. No 1-008-B210, Biomaxima S.A. Lublin, Poland) was used.

[4] = system: rats fed a palatable diet; assay: Model of excessive eating: body weight, calorie intake, fat pads; format: in vivo, female Wistar rats
Protocol: Experiments were performed on female Wistar rats with an initial body weight of 140–160 g. The animals were housed in plastic cages (2 rats per cage) at a constant room temperature of 22 ± 2 °C, with a 12:12 h light/dark cycle. Water and food were available ad libitum. The randomly established experimental groups consisted of 6 rats for pharmacological studies and 3 rats for pharmacokinetic studies. All experiments were conducted in accordance with the Guide to the Care and Use of Experimental Animals, and were approved by the Jagiellonian University in Krakow Local Ethics Committee for Experiments on Animals (Permission No: 185/2017, 220/2019 and 223A/2019).
Female rats were randomly divided into several groups (n = 6) and studied for 4 weeks. The groups were as follows: standard diet + vehicle, palatable diet + vehicle, palatable diet + KSK-60 (1 mg/kg), palatable diet + KSK-60 (10 mg/kg), palatable diet + KSK-74 (1 mg/kg), palatable diet + KSK-74 (10 mg/kg), palatable diet + phentermine (7 mg/kg).
The studies for the 1 mg/kg b.w. and 10 mg/kg b.w. doses were performed at different times, so the parameters studied were compared to the respective control groups.
Rats fed a palatable diet had access to a diet consisting of milk chocolate with nuts, cheese, salted peanuts, and 7% condensed milk, and simultaneously to a standard feed (Labofeed B, Morawski Manufacturer Feed, Poland) for 4 weeks. The water was available ad libitum. Animals had access to palatable products, but also to the standard feed. Most importantly, feeding was not in any way forced, as in other models where animals were fed only a high-fat diet, or temporarily deprived of food (binge eating models). In the case of our model, rats decided themselves when, what, and how much to eat. The weight was evaluated daily. Calorie intake was evaluated three times a week. A palatable diet contained 100 g of peanuts—612 kcal; 100 mL of condensed milk—131 kcal; 100 g of milk chocolate—529 kcal; and 100 g of cheese—325 kcal. The standard diet contained 100 g of feed—280 kcal. Standard diet (fats 8%, carbohydrates 67%, proteins 25%) contained 100 g feed—280 kcal.
The palatable control group (palatable diet + vehicle) received vehicle (1% Tween 80 i.p., daily, for 4 weeks), while palatable test groups were injected i.p. with KSK-60 (1 mg or 10 mg/kg i.p, daily, for 4 weeks), KSK-74 (1 mg/kg or 10 mg/kg i.p, daily, for 4 weeks), or phentermine (7 mg/kg i.p., daily, for 4 weeks), respectively.
On the 31st day, 20 min after i.p. administration of heparin (5000 units/rat) and thiopental (70 mg/kg b.w.), animals were sacrificed, and plasma as well as peritoneal fat pads were collected (food was stopped for 6 h prior to organ, tissue, and plasma collection) for further study.

induced obesity in mice = system: induced obesity in mice; parameters: method as in PMID 29802412; details: i.p. 10 mg/kg b.w. for 14 days; cited from earlier work
obese adults = system: obese adults; parameters: method as in earlier work; details: cited from earlier work
[5] = system: obese animal after olanzapine treatment; parameters: method as in PMID 11985350, PMID 22695490; details: cited from earlier work
[6] = parameters: method as in PMID 15447739; details: cited from earlier work
mice fed a high-fat diet = system: mice fed a high-fat diet; parameters: method as in PMID 15447739; details: highest dose; cited from earlier work

In the case of CC(=O)c1ccc(OCCCCCCN2CCN(c3ccncc3)CC2)cc1 [KSK-59], the Ki (sigma-2 receptor) is listed as 151 nM, the Ki (sigma-1 receptor) is listed as 37.8 nM and the “inhibition of weight gain” value [1] is listed as “high efficacy in inhibiting weight gain”.

In the case of CC(=O)c1ccc(OCCCCCCCCN2CCN(c3ccncc3)CC2)cc1 [KSK-73], the Ki (sigma-2 receptor) is given as 59.7 nM, the Ki (sigma-1 receptor) is given as 408 nM and the “affinity ratio H3/sigma-2 receptors” value (H3R) is given as 0.68. The “inhibition of weight gain” value [1] was “high efficacy in inhibiting weight gain”.

With CC(C)(N)Cc1ccccc1 [phentermine, reference compound] the “plasma triglyceride levels vs palatable diet + vehicle” value [2] was “lower plasma triglyceride levels”, the “capillary congestion and crown-like structures in adipose tissue” value (adipose tissue; 7 mg/kg) was “marked capillary congestion and frequent appearance of crown-like structures” and the “inflammatory infiltrates in adipose tissue (histological description)” value (adipose tissue; KSK 10 mg/kg, phentermine 7 mg/kg) was “slightly less inflammatory infiltrates”. The “number of adipocytes per 0.1 mm^2 of cross-sectional area” value (adipose tissue; KSK 10 mg/kg, phentermine 7 mg/kg, means ± SD, n = 6) was “more similar to the results of the palatable diet + vehicle group”, the “inflammatory index of the adipose tissue” value (adipose tissue; KSK 10 mg/kg, phentermine 7 mg/kg, standard diet + vehicle 0.5 ± 0.34) was 4.16 ± 0.48 and the “number of rats, Capillary Congestion grade 1-Congestion” value (adipose tissue; n = 6 per group) was 6. The “number of rats, Inflammatory Cell Infiltration grade 1-Few Cells” value (adipose tissue; n = 6 per group) was 4, the “number of rats, Inflammatory Cell Infiltration grade 2-Local Clusters” value (adipose tissue; n = 6 per group) was 2 and the “number of rats, Perivascular Infiltration grade 0-Normal” value (adipose tissue; n = 6 per group) was 1. For the same compound, the “number of rats, Perivascular Infiltration grade 1-Few Cells” value (adipose tissue; n = 6 per group) was 4, the “number of rats, Perivascular Infiltration grade 2-Ring of Cells” value (adipose tissue; n = 6 per group) was 1 and the “number of rats, Widening of the Septum grade 0-Normal” value (adipose tissue; n = 6 per group) was 1. The “number of rats, Widening of the Septum grade 1-Widening” value (adipose tissue; n = 6 per group) was 5, the “resistin levels in adipose tissue vs palatable diet + vehicle” value [3] was “did not influence” and the “leptin levels in adipose tissue” value ([3]; vs palatable diet + vehicle unless worded otherwise) was “did not influence”. The “amount of peritoneal fat pads vs palatable diet + vehicle” value ([4]; KSK 10 mg/kg, phentermine 7 mg/kg, end of experiment) was “fewer peritoneal fat pads”, the “calorie intake vs control group fed palatable feed” value ([4]; i.p. 28 days, KSK 10 mg/kg b.w., phentermine 7 mg/kg b.w.) was “did not significantly influence the amount of calories consumed” and the “body weight gain vs palatable diet + vehicle” value ([4]; i.p. daily 4 weeks, KSK-60/KSK-74 10 mg/kg b.w., phentermine 7 mg/kg) was “gained less weight”.

For Clc1ccc(CCCOCCCN2CCCCC2)cc1 [Pitolisant], the “body weight and metabolic disturbances” value (induced obesity in mice) is given as “positive influence on body weight, glucose tolerance, and lipid profile”.

For CNCCc1ccccn1 [Betahistine, reference compound], the “reduction of body weight and waist circumference compared with Orlistat” value (obese adults) is listed as “did not show significant differences”, the body weight [5] is listed as “induced significant weight loss” and the “high-density lipoprotein (HDL) levels, long-term administration” value ([1]; rat model of excessive eating) is listed as “increases high-density lipoprotein (HDL) levels”. The “weight gain, long-term administration” value ([1]; rat model of excessive eating) was “slows weight gain”.

In the case of CN(C)[C@@H]1CCN(CCCOc2ccc(-c3ccc(C#N)cc3)cc2)C1 [Compound A-331440], the “reason for exclusion from clinical trials” value [6] is listed as “genotoxicity” and the body weight (mice fed a high-fat diet) is listed as “induced weight loss comparable to mice fed a low-fat diet”.
